Experimental data as given in US20050192256A1, “Methods of using vitamin D compounds in the treatment of patients undergoing hemodialysis” (priority 2003, published 2005).

Columns and labels:
[1] = Vitamin D therapy and K/DOQI guidelines on hospitalization outcomes in hemodialysis patients (cohort, negative binomial regression); type: in vivo, human; conditions: for annual hospitalizations (HOSP) and hospital days (DAYS), NoD group compared with treated group: NoD (N=3007) vs P (N=1318) or C (N=1432), therapy at least 180 days
From the text: An examination was made of the relationship between Vitamin D therapy and K/DOQI guidelines on hospitalization outcomes, as a surrogate for morbidity, in hemodialysis (HD) patients. The cohort consisted of U.S. patients who were new to HD during the period from January 1999 to December 2001 and who received paricalcitol (P), calcitriol (C) or no vitamin D (NoD) therapy for at least 180 days. To allow for patients to be stabilized after initiation to Vitamin D or NoD therapy, baseline laboratory values were defined over the initial 90-180 days of the observation period; mean values over this baseline period were assessed relative to K/DOQI guidelines. Patients with baseline laboratory measurements within K/DOQI guidelines served as reference groups. An interaction term was created to examine the relationship between Vitamin D therapy and the K/DOQI baseline assessment. Outcomes were defined by annual hospitalizations (HOSP) and hospital days (DAYS). Analysis was performed using negative binomial regression modeling.

[2] = Association of Vitamin D therapy, serum PTH and CaxP product quintiles with hospitalization outcomes in hemodialysis patients (cohort, negative binomial regression); type: in vivo, human; conditions: for association between quintiles of PTH, CaxP and hospital outcomes (morbidity): interaction of laboratory quintiles and Vitamin D therapy
From the text: Elevated PTH and CaxP levels have been considered risk factors for increased mortality and morbidity (M&M) in HD patients. […] To date, the relationship between M&M, PTH, CaxP product and the impact of Vitamin D therapy, however, has not been addressed. Thus, by quintiles, an analysis was made of the baseline distribution of serum iPTH, and CaxP product levels in HD patients who received paricalcitol (P), calcitriol (C) or no Vitamin D (NoD) therapy in regard to their relationship with hospitalization outcomes as defined by hospitalizations per year (HOSP) and hospital days per year (DAYS). The cohort consisted of 11,340 adult patients new to HD between January 1999 and November 2001; there were 2,316 patients treated with P; 2,299 patients treated with C and 6,725 patients NoD.

[3] = recent data; cited from earlier work

Row | SMILES | difference in outcomes for patients within K/DOQI guidelines compared to those outside of guidelines ([1]; HOSP and DAYS) | annual hospitalizations (HOSP) and hospital days (DAYS), NoD group compared with treated group ([1]; p<0.05) | hospitalization outcomes, ranking among groups ([1]; P vs C vs NoD) | fewer DAYS (hospital days per year) compared to C group ([2]; 2,316 patients P vs 2,299 C, p=0.0036) [%] | fewer DAYS (hospital days per year) compared to NoD group ([2]; 2,316 patients P vs 6,725 NoD, p<0.0001) [%] | association between quintiles of PTH, CaxP and hospital outcomes (morbidity) [2] | survival in HD patients [3] | increase in DAYS for patients outside of K/DOQI guidelines for Phos ([1]; interaction assessment, reference: patients within K/DOQI guidelines, p<0.05) [%] | DAYS in the 2nd quintile of CaxP compared to the reference group (3rd quintile) ([2]; human, in vivo)
1 | C[C@H](/C=C/[C@H](C)C(C)(C)O)[C@H]1CC[C@H]2/C(=C/C=C3C[C@@H](O)C[C@H](O)C3)CCC[C@]12C [paricalcitol, 19-nor-1α,3β,25-trihydroxy-9,10-secoergosta-5(Z); 7(E),22(E)-triene] | no significant difference | significantly more HOSP and DAYS | fewest hospitalization outcomes | 72 | 90 | not associated with morbidity | associated with survival benefit | – | –
2 | C=C1/C(=C\C=C2/CCC[C@]3(C)[C@@H]([C@H](C)CCCC(C)(C)O)CC[C@@H]23)C[C@@H](O)C[C@@H]1O [calcitriol, 1α,25-dihydroxy-vitamin D3] | – | significantly more HOSP and DAYS | – | – | – | no significant associations | – | 40 | significantly fewer DAYS
